Source: ChEMBL document CHEMBL2157927, “Imidazotriazinone compounds: patent highlight” (ACS Med Chem Lett, 2012)

Assays:
[1] = Inhibition of PDE9 by spectrophotometric analysis
[2] = Selectivity ratio of IC50 for PDE1A to IC50 for PDE9
[3] = Selectivity ratio of IC50 for PDE1B to IC50 for PDE9

IC50 [1] [µM]	Ratio IC50 [2]	Ratio IC50 [3]	SMILES
1			C[C@@H]1CN(Cc2cnccn2)C[C@H]1c1nn2c(C3CCOCC3)ncc2c(=O)[nH]1
> 10			C[C@@H]1CN(Cc2ncccn2)C[C@H]1c1nn2c(C3CCOCC3)ncc2c(=O)[nH]1
< 1	> 1000	> 1000	C[C@@H]1CN(Cc2cccc(F)c2)C[C@H]1c1nn2c(C3CCOCC3)ncc2c(=O)[nH]1
